Test results taken from patent US11207365B2, “Combined preparations of urinary acidifiers and crystallization inhibitors and application thereof for the treatment or prevention of phosphatic or calcium phosphate-induced renal lithiasis” (UNIVERSITAT DE LES ILLES BALEARS, priority 2014, dated 2021).

Assay: Induction time for the crystallization of calcium phosphate in artificial urine
Settings: for induction time t: 15 mM phosphate and 3 mM calcium solution in artificial urine (no magnesium); for delay in the induction time: 1 μM phytate versus solution without inhibitor
Procedure: From a 15 mM phosphate ion and 3 mM calcium ion solution in artificial urine, the induction times for the crystallization of calcium phosphate have been calculated at different pH and phytate concentration. The artificial urine had no magnesium since it is shown that the magnesium ion is a calcium phosphate crystallization inhibitor. […] Thus, while at pH 6.75, the calcium phosphate solution (without inhibitor) takes 1 minute to crystallize, with 1 μM phytate it takes 2 minutes (the delay in the induction time at this pH value is 1 minute, for 1 μM phytate). However, when the pH decreases to 6.60, the calcium phosphate solution (without inhibitor) takes 6 minutes to crystallize, while with 1 μM phytate it takes 33 minutes (the delay in the induction time at this pH value is 27 minutes, for 1 μM phytate). Thus, for the same amount of inhibitor there is a significant increase of the crystallization time when the value of the pH of the solution decreases.

O=P(O)(O)O[C@H]1[C@H](OP(=O)(O)O)[C@@H](OP(=O)(O)O)[C@H](OP(=O)(O)O)[C@@H](OP(=O)(O)O)[C@H]1OP(=O)(O)O [phytate, myo-inositol-hexaphosphate]
induction time t (0.5 μM phytate, pH = 6.60): 12 min
induction time t (0.5 μM phytate, pH = 6.65): 4 min
induction time t (0.5 μM phytate, pH = 6.75): 1 min
delay in the induction time (pH 6.60): 27 min
delay in the induction time (pH 6.75): 1 min
induction time t (1.0 μM phytate, pH = 6.60): 33 min
induction time t (1.0 μM phytate, pH = 6.65): 6 min
induction time t (1.0 μM phytate, pH = 6.75): 2 min
